The results in this text go back to patent EP0179386A2, “1,4-Dihydropyridine hydroxyamines, process for their preparation and their use as pharmaceutical agents” (BAYER AG, priority 1984, dated 1986).

The subject of experiment [1] is Isoprenalin stimulierten Ratten. The experiment can be described thus: Lowering of heart rate in rats stimulated with subcutaneous isoprenaline. The class given is in vivo. The conditions noted are these: anaesthetised rats, 1 mg/kg i.v., heart rate stimulated by subcutaneous isoprenaline. The method, then:
In einem zweiten Test wird die Herzfrequenz von Ratten durch subkutane Applikation von Isoprenalin stimuliert. Dann werden die erfindungsgemäßen Verbindungen appliziert (1 mg/kg i.v.) und 'der Effekt auf die Erniedrigung der Herzfrequenz gemessen.

A further experiment has as its system normotonen Ratten. Nature of the experiment: Blood pressure before and after i.v. application in anaesthetised normotensive rats. The class given is in vivo. The conditions noted are these: Rattus norvegicus, iv, 1 mg/kg i.v., read-out: BD: Blutdrucksenkung in % bei normotonen Ratten. The method, then:
Die erfindungsgemäßen neuen Verbindungen werden Ratten mit einer Dosis von 1 mg/kg intravenös appliziert und der Blutdruck vor und nach der Applikation bestimmt.

`CC1=C(C(=O)OCCOCCNCC(O)COc2cccc3ccccc23)C(c2cccc([N+](=O)[O-])c2)C(C(=O)OC(C)C)=C(C)N1` (centres unmarked) [Beispiel 30]: in experiment [1], the “HR: Erniedrigung der Herzfrequenz in absoluten Zahlen bei Isoprenalin stimulierten Ratten (subkutane Applikation)” value (“HR: Erniedrigung der Herzfrequenz” for short) is “(↓) (10)”. The inhibition in vivo at 1 mg/kg in the experiment with normotonen Ratten lay within 30 to 40%.

In the case of `COC(=O)C1=C(C)NC(C)=C(C(=O)OCCNCC(O)COc2cccc3ccccc23)C1c1ccccc1[N+](=O)[O-]` (centres unmarked) [Beispiel 69], in experiment [1], the “HR: Erniedrigung der Herzfrequenz” value was “↓ (15 - < 40)”. Moreover, in the experiment on normotonen Ratten, the inhibition in vivo at 1 mg/kg fell in the range of 10 to 20%.

For `COC(=O)C1=C(C)NC(C)=C(C(=O)OCCNCC(O)COc2ccc(CC(N)=O)cc2)C1c1cccc([N+](=O)[O-])c1` (centres unmarked) [Beispiel 25], the “HR: Erniedrigung der Herzfrequenz” value in experiment [1] is given as “↓ (15 - < 40)”. In addition, in the experiment on normotonen Ratten, the inhibition in vivo at 1 mg/kg is 5 to 10%.

In the case of `CC1=C(C(=O)OCCSCCNCC(O)COc2cccc3ccccc23)C(c2cccc([N+](=O)[O-])c2)C(C(=O)OC(C)C)=C(C)N1` (centres unmarked) [Beispiel 31], in experiment [1], the “HR: Erniedrigung der Herzfrequenz” value is on record as “↓↓ (40 < 65)”. In the experiment with normotonen Ratten, the inhibition in vivo at 1 mg/kg was 20 to 30%.

For the compound `CC1=C(C(=O)OCCCNCC(O)COc2cccc3[nH]ccc23)C(c2cccc([N+](=O)[O-])c2)C(C(=O)OC(C)C)=C(C)N1` (centres unmarked) [Beispiel 26], the “HR: Erniedrigung der Herzfrequenz” value in experiment [1] was “↓↓↓ (65 < 100)”. Moreover, in the experiment with normotonen Ratten, the inhibition in vivo at 1 mg/kg lay within 10 to 20%.

As for `COC(=O)C1=C(C)NC(C)=C(C(=O)OCCN(C)CCCNCC(O)COc2cccc3ccccc23)C1c1cccc([N+](=O)[O-])c1` (centres unmarked) [Beispiel 32], the “HR: Erniedrigung der Herzfrequenz” value in experiment [1] was “↓ (15 - < 40)”. For the same compound, in the experiment with normotonen Ratten, the inhibition in vivo at 1 mg/kg fell in the range of 10 to 20%.

For the compound `COC(=O)C1=C(C)NC(C)=C(C(=O)OCCCCCNCC(O)COc2cccc3ccccc23)C1c1cccc([N+](=O)[O-])c1` (centres unmarked) [Beispiel 16], the “HR: Erniedrigung der Herzfrequenz” value in experiment [1] was “↓ (15 - < 40)”. Moreover, the inhibition in vivo at 1 mg/kg in the experiment with normotonen Ratten is 10 to 20%.

On to `CC1=C(C(=O)OCCNCC(O)COc2cccc3ccccc23)C(c2cccc([N+](=O)[O-])c2)C(C(=O)OC(C)C)=C(C)N1` (centres unmarked) [Beispiel 1], for which the “HR: Erniedrigung der Herzfrequenz” value in experiment [1] is given as “↓↓ (40 < 65)”. Also, the inhibition in vivo at 1 mg/kg in the experiment on normotonen Ratten lay within 20 to 30%.

Turning to `COC(=O)C1=C(C)NC(C)=C(C(=O)OCCNCC(O)COc2cccc3ccccc23)C1c1cccc(Cl)c1` (centres unmarked) [Beispiel 68], in experiment [1], the “HR: Erniedrigung der Herzfrequenz” value is on record as “↓ (15 - < 40)”. The inhibition in vivo at 1 mg/kg in the experiment with normotonen Ratten was in the range of 20 to 30%.

For `COC(=O)C1=C(C)NC(C)=C(C(=O)OCCOCCNCC(O)COc2cccc3ccccc23)C1c1cccc([N+](=O)[O-])c1` (centres unmarked) [Beispiel 20], in experiment [1], the “HR: Erniedrigung der Herzfrequenz” value is “↓↓ (40 < 65)”. In addition, the inhibition in vivo at 1 mg/kg in the experiment on normotonen Ratten lay within 10 to 20%.
